Results as given in article PMC5218480 (PLoS ONE, 2017).

Test system: MV-4-11 cells
Assay: Gene expression microarray analysis (Affymetrix PrimeView) and GSEA
Format: cell-based, human
Set-up: RFU PODN (11730768_x_at) / Fold change /veh PODN (11730768_x_at) / RFU LINC00158 (11744669_a_at) / Fold change /veh LINC00158 (11744669_a_at) / RFU DUSP10 (11751237_a_at) / Fold change /veh DUSP10 (11751237_a_at) / RFU ID3 (11757404_x_at) / Fold change /veh ID3 (11757404_x_at) / RFU PLEKHG5 (11737974_s_at) / Fold change /veh PLEKHG5 (11737974_s_at) / RFU LRRC4B (11730491_at) / Fold change /veh LRRC4B (11730491_at) / RFU GIMAP4 (11747438_a_at) / Fold change /veh GIMAP4 (11747438_a_at) / RFU KRT8 (11758183_x_at) / Fold change /veh KRT8 (11758183_x_at) / RFU CNN1 (11734310_a_at) / Fold change /veh CNN1 (11734310_a_at) / RFU VPS37D (11726825_at) / Fold change /veh VPS37D (11726825_at) / RFU C10orf10 (11716522_x_at) / Fold change /veh C10orf10 (11716522_x_at) / RFU KIR2DL2 /// KIR2DL4 /// KIR2DL5A /// KIR2DL5B /// KIR2DS1 /// KIR2DS2 /// KIR2DS3 /// KIR2DS4 /// KIR3DL3 /// KIR3DL3 /// KIR3DS1 (11738374_at) / Fold change /veh KIR2DL2 /// KIR2DL4 /// KIR2DL5A /// KIR2DL5B /// KIR2DS1 /// KIR2DS2 /// KIR2DS3 /// KIR2DS4 /// KIR3DL3 /// KIR3DL3 /// KIR3DS1 (11738374_at) / RFU C1QL1 (11718748_at) / Fold change /veh C1QL1 (11718748_at) / RFU TMPRSS4 (11747572_a_at) / Fold change /veh TMPRSS4 (11747572_a_at) / RFU HAMP (11756126_x_at) / Fold change /veh HAMP (11756126_x_at) / RFU RNFT2 (11725882_a_at) / Fold change /veh RNFT2 (11725882_a_at) / RFU NR4A2 (11747474_a_at) / Fold change /veh NR4A2 (11747474_a_at) / RFU ABCC12 (11746883_a_at) / Fold change /veh ABCC12 (11746883_a_at) / RFU TMEM136 (11760407_x_at) / Fold change /veh TMEM136 (11760407_x_at) / RFU CLDN22 /// WWC2 (11732394_at) / Fold change /veh CLDN22 /// WWC2 (11732394_at) / RFU HLA-DPB1 (11760878_x_at) / Fold change /veh HLA-DPB1 (11760878_x_at) / RFU SPINT1 (11716480_a_at) / Fold change /veh SPINT1 (11716480_a_at) / RFU GAP43 (11754022_s_at) / Fold change /veh GAP43 (11754022_s_at) / RFU A4GNT (11735810_at) / Fold change /veh A4GNT (11735810_at) / RFU PRB3 (11715151_x_at) / Fold change /veh PRB3 (11715151_x_at) / RFU TUBB4B (11761932_at) / Fold change /veh TUBB4B (11761932_at) / RFU CAPN14 (11732068_a_at) / Fold change /veh CAPN14 (11732068_a_at) / RFU TMCC2 (11721928_a_at) / Fold change /veh TMCC2 (11721928_a_at) / RFU IRGQ (11745062_a_at) / Fold change /veh IRGQ (11745062_a_at) / RFU FAM174B (11720279_a_at) / Fold change /veh FAM174B (11720279_a_at) / RFU TMPRSS4 (11748680_a_at) / Fold change /veh TMPRSS4 (11748680_a_at) / RFU FAM212B (11763350_a_at) / Fold change /veh FAM212B (11763350_a_at) / RFU PLEKHG5 (11743358_a_at) / Fold change /veh PLEKHG5 (11743358_a_at) / RFU ZSCAN30 (11745921_a_at) / Fold change /veh ZSCAN30 (11745921_a_at) / RFU CMKLR1 (11741424_a_at) / Fold change /veh CMKLR1 (11741424_a_at) / RFU LOC101060620 /// MAPK8IP1 (11723275_at) / Fold change /veh LOC101060620 /// MAPK8IP1 (11723275_at) / RFU SPTSSB (11747773_x_at) / Fold change /veh SPTSSB (11747773_x_at) / RFU PRSS12 (11739890_at) / Fold change /veh PRSS12 (11739890_at) / RFU BIN1 (11741810_x_at) / Fold change /veh BIN1 (11741810_x_at) / RFU WNT11 (11732464_a_at) / Fold change /veh WNT11 (11732464_a_at) / RFU C10orf10 (11716521_a_at) / Fold change /veh C10orf10 (11716521_a_at) / RFU C5orf56 (11738089_at) / Fold change /veh C5orf56 (11738089_at) / RFU CYB561 (11721691_x_at) / Fold change /veh CYB561 (11721691_x_at) / RFU ANKRD19P (11752326_a_at) / Fold change /veh ANKRD19P (11752326_a_at) / RFU OR2T12 /// OR2T33 /// OR2T8 (11738714_s_at) / Fold change /veh OR2T12 /// OR2T33 /// OR2T8 (11738714_s_at) / RFU VCAN (11748164_a_at) / Fold change /veh VCAN (11748164_a_at) / RFU JSRP1 (11732532_at) / Fold change /veh JSRP1 (11732532_at) / RFU KRTAP10-11 (11738290_x_at) / Fold change /veh KRTAP10-11 (11738290_x_at) / RFU MYO3A (11730013_a_at) / Fold change /veh MYO3A (11730013_a_at) / RFU EBF3 (11725865_a_at) / Fold change /veh EBF3 (11725865_a_at) / RFU CAMK2N1 (11719241_x_at) / Fold change /veh CAMK2N1 (11719241_x_at) / RFU C5orf56 (11738088_a_at) / Fold change /veh C5orf56 (11738088_a_at) / RFU OLFML3 (11715873_a_at) / Fold change /veh OLFML3 (11715873_a_at) / RFU LOC100653217 /// NTM (11731650_a_at) / Fold change /veh LOC100653217 /// NTM (11731650_a_at) / RFU MAPK11 (11762145_a_at) / Fold change /veh MAPK11 (11762145_a_at) / RFU FIZ1 (11724087_x_at) / Fold change /veh FIZ1 (11724087_x_at) / RFU OASL (11726364_x_at) / Fold change /veh OASL (11726364_x_at) / RFU SOX15 (11748057_x_at) / Fold change /veh SOX15 (11748057_x_at) / RFU CD79A (11719716_a_at) / Fold change /veh CD79A (11719716_a_at) / RFU HIST1H1D (11736915_at) / Fold change /veh HIST1H1D (11736915_at) / RFU CASKIN2 (11723855_a_at) / Fold change /veh CASKIN2 (11723855_a_at) / RFU LOC730098 (11760151_x_at) / Fold change /veh LOC730098 (11760151_x_at) / RFU OR4N2 (11742367_at) / Fold change /veh OR4N2 (11742367_at) / RFU PRRT2 (11749266_a_at) / Fold change /veh PRRT2 (11749266_a_at) / RFU SNX32 (11753110_a_at) / Fold change /veh SNX32 (11753110_a_at) / RFU CDHR5 (11726645_a_at) / Fold change /veh CDHR5 (11726645_a_at) / RFU RCAN1 (11760418_a_at) / Fold change /veh RCAN1 (11760418_a_at) / RFU FAM167A (11723789_a_at) / Fold change /veh FAM167A (11723789_a_at) / RFU FAM26E (11764081_at) / Fold change /veh FAM26E (11764081_at) / RFU ISYNA1 (11749810_s_at) / Fold change /veh ISYNA1 (11749810_s_at) / RFU ACY1 (11761880_at) / Fold change /veh ACY1 (11761880_at) / RFU 11764098_at / Fold change /veh 11764098_at / RFU SAMD14 (11745864_x_at) / Fold change /veh SAMD14 (11745864_x_at) / RFU NPB (11741838_a_at) / Fold change /veh NPB (11741838_a_at) / RFU TMPRSS6 (11731388_a_at) / Fold change /veh TMPRSS6 (11731388_a_at) / RFU KRTAP10-2 (11738614_at) / Fold change /veh KRTAP10-2 (11738614_at) / RFU ARHGAP8 /// PRR5-ARHGAP8 (11727945_x_at) / Fold change /veh ARHGAP8 /// PRR5-ARHGAP8 (11727945_x_at) / RFU KRTAP5-7 /// NADSYN1 (11734609_at) / Fold change /veh KRTAP5-7 /// NADSYN1 (11734609_at) / RFU RASL12 (11751679_a_at) / Fold change /veh RASL12 (11751679_a_at) / RFU CDKN2B (11736163_a_at) / Fold change /veh CDKN2B (11736163_a_at) / RFU PRF1 (11729649_at) / Fold change /veh PRF1 (11729649_at) / RFU, ZNF638 /// ZNF638-IT1 / Fold change vs veh, ZNF638 /// ZNF638-IT1 / RFU, PANK3 / Fold change vs veh, PANK3 / RFU, SH3YL1 / Fold change vs veh, SH3YL1 / RFU, ZEB2 / Fold change vs veh, ZEB2 / RFU, NRIP1 / Fold change vs veh, NRIP1 / RFU, PTTG1IP / Fold change vs veh, PTTG1IP / RFU, CAPN2 / Fold change vs veh, CAPN2 / RFU, MED14 / Fold change vs veh, MED14 / RFU, SNORA58 / Fold change vs veh, SNORA58 / RFU, C1orf63 / Fold change vs veh, C1orf63 / RFU, LRRFIP1 / Fold change vs veh, LRRFIP1 / RFU, NDUFAF7 / Fold change vs veh, NDUFAF7 / RFU, SLC12A2 / Fold change vs veh, SLC12A2 / RFU, IBTK / Fold change vs veh, IBTK / RFU, ESF1 / Fold change vs veh, ESF1 / Fold change vs veh, TMEM50B / RFU, TAOK1 / Fold change vs veh, TAOK1 / RFU, ACBD3 / Fold change vs veh, ACBD3 / RFU, TMA16 / Fold change vs veh, TMA16 / RFU, RWDD3 / Fold change vs veh, RWDD3 / RFU, BCAT1 / Fold change vs veh, BCAT1 / RFU, EDEM3 / Fold change vs veh, EDEM3 / RFU, TMEM33 / Fold change vs veh, TMEM33 / RFU, WDR75 / Fold change vs veh, WDR75 / RFU, AHCTF1 / Fold change vs veh, AHCTF1 / RFU, TFRC / Fold change vs veh, TFRC / RFU, ZDHHC17 / Fold change vs veh, ZDHHC17 / RFU, NOM1 / Fold change vs veh, NOM1 / RFU, ARL8B / Fold change vs veh, ARL8B / RFU, ZBTB11 / Fold change vs veh, ZBTB11 / RFU, TAMM41 / Fold change vs veh, TAMM41 / RFU, KIAA1704 /// LOC100996395 / Fold change vs veh, KIAA1704 /// LOC100996395 / RFU, ING1 / Fold change vs veh, ING1 / RFU, TRMT61B / Fold change vs veh, TRMT61B / RFU, FUBP3 / Fold change vs veh, FUBP3 / RFU, TP53 / Fold change vs veh, TP53 / RFU, TNKS2 / Fold change vs veh, TNKS2 / RFU, ZFP14 / Fold change vs veh, ZFP14 / RFU, ACTR2 / Fold change vs veh, ACTR2 / RFU, PPP3R1 / Fold change vs veh, PPP3R1 / RFU, PIK3R1 / Fold change vs veh, PIK3R1 / RFU, HNRNPA1 / Fold change vs veh, HNRNPA1 / RFU, RNF170 / Fold change vs veh, RNF170 / RFU, ZNF28 / Fold change vs veh, ZNF28 / RFU, RNGTT / Fold change vs veh, RNGTT / RFU, OGT / Fold change vs veh, OGT / RFU, BRD1 / Fold change vs veh, BRD1 / RFU, MARS / Fold change vs veh, MARS / RFU, ZNF655 / Fold change vs veh, ZNF655 / RFU, FAHD1 / Fold change vs veh, FAHD1 / RFU, BDP1 / Fold change vs veh, BDP1 / RFU, LRRCC1 / Fold change vs veh, LRRCC1 / RFU, ARID1A / Fold change vs veh, ARID1A / RFU, ZNF146 / Fold change vs veh, ZNF146 / RFU, ZNF330 / Fold change vs veh, ZNF330 / RFU, GPN3 / Fold change vs veh, GPN3 / RFU, C9orf123 / Fold change vs veh, C9orf123 / RFU, N4BP2L2 / Fold change vs veh, N4BP2L2 / RFU, ARFIP1 / Fold change vs veh, ARFIP1 / RFU, FAM179B / Fold change vs veh, FAM179B / RFU, BCL10 / Fold change vs veh, BCL10 / RFU, UHRF1BP1L / Fold change vs veh, UHRF1BP1L / RFU, BET1 / Fold change vs veh, BET1 / RFU, CNOT2 / Fold change vs veh, CNOT2 / RFU, ZNF268 / Fold change vs veh, ZNF268 / Fold change vs veh, ZNF507 / RFU, DGCR2 / Fold change vs veh, DGCR2 / RFU, WDSUB1 / Fold change vs veh, WDSUB1 / Fold change vs veh, HSP90B1 /// MIR3652 / RFU, ADSS / Fold change vs veh, ADSS / RFU, GK / Fold change vs veh, GK / RFU, ZNF148 / Fold change vs veh, ZNF148 / RFU, TAF9 / Fold change vs veh, TAF9 / RFU, SLC1A5 / Fold change vs veh, SLC1A5 / RFU, SLMO2 / Fold change vs veh, SLMO2 / RFU, ABCC4 / Fold change vs veh, ABCC4 / RFU, LOC101060439 /// RAP1B / Fold change vs veh, LOC101060439 /// RAP1B / RFU, RFX7 / Fold change vs veh, RFX7 / RFU, GTPBP10 / Fold change vs veh, GTPBP10 / RFU, CNEP1R1 / Fold change vs veh, CNEP1R1 / RFU, BIVM-ERCC5 /// ERCC5 / Fold change vs veh, BIVM-ERCC5 /// ERCC5 / RFU, ILF3 / Fold change vs veh, ILF3 / RFU 11762660_at / Fold change /veh 11762660_at / RFU VCAN (11757783_s_at) / Fold change /veh VCAN (11757783_s_at) / RFU DDX43 (11728927_at) / Fold change /veh DDX43 (11728927_at) / RFU KRT8 (11758188_x_at) / Fold change /veh KRT8 (11758188_x_at) / RFU NKD1 (11759106_at) / Fold change /veh NKD1 (11759106_at) / RFU SRD5A1 (11742802_a_at) / Fold change /veh SRD5A1 (11742802_a_at) / RFU TPSAB1 /// TPSB2 (11721975_s_at) / Fold change /veh TPSAB1 /// TPSB2 (11721975_s_at) / RFU GSTM3 (11746129_a_at) / Fold change /veh GSTM3 (11746129_a_at) / RFU IL23R (11737362_x_at) / Fold change /veh IL23R (11737362_x_at) / RFU TMEM51 (11727254_a_at) / Fold change /veh TMEM51 (11727254_a_at) / RFU PIWIL2 (11732686_x_at) / Fold change /veh PIWIL2 (11732686_x_at) / RFU ORM1 (11744905_x_at) / Fold change /veh ORM1 (11744905_x_at) / RFU CCDC152 (11743942_at) / Fold change /veh CCDC152 (11743942_at) / RFU ECM1 (11717891_a_at) / Fold change /veh ECM1 (11717891_a_at) / RFU IL23R (11748794_a_at) / Fold change /veh IL23R (11748794_a_at) / RFU TNFAIP8L3 (11732012_x_at) / Fold change /veh TNFAIP8L3 (11732012_x_at) / RFU MBOAT4 (11741988_at) / Fold change /veh MBOAT4 (11741988_at) / RFU 11764193_at / Fold change /veh 11764193_at / RFU TMEM53 (11763286_at) / Fold change /veh TMEM53 (11763286_at) / RFU MAGEB2 (11727129_at) / Fold change /veh MAGEB2 (11727129_at) / RFU TMEM200A (11744735_a_at) / Fold change /veh TMEM200A (11744735_a_at) / RFU CCDC152 (11751479_a_at) / Fold change /veh CCDC152 (11751479_a_at) / RFU FAM211A (11726209_a_at) / Fold change /veh FAM211A (11726209_a_at) / RFU RGS16 (11746705_a_at) / Fold change /veh RGS16 (11746705_a_at) / RFU VCAN (11755009_s_at) / Fold change /veh VCAN (11755009_s_at) / RFU RHOB (11743442_s_at) / Fold change /veh RHOB (11743442_s_at) / RFU RGS16 (11720943_a_at) / Fold change /veh RGS16 (11720943_a_at) / RFU RGS16 (11720944_at) / Fold change /veh RGS16 (11720944_at) / RFU, VPS4B / Fold change vs veh, VPS4B / RFU, CREB1 / Fold change vs veh, CREB1 / RFU, DNAJC13 / Fold change vs veh, DNAJC13 / RFU, GNAQ / Fold change vs veh, GNAQ / RFU, CDK5R1 / Fold change vs veh, CDK5R1 / RFU, ZRANB3 / Fold change vs veh, ZRANB3 / RFU, CUL4A / Fold change vs veh, CUL4A / RFU, CCNY / Fold change vs veh, CCNY / RFU, UFL1 / Fold change vs veh, UFL1 / RFU, COG3 / Fold change vs veh, COG3 / RFU, DIAPH2 / Fold change vs veh, DIAPH2 / RFU, SKA2 / Fold change vs veh, SKA2 / RFU, AFF3 / Fold change vs veh, AFF3 / RFU, LMF1 / Fold change vs veh, LMF1 / RFU, IPO11 / Fold change vs veh, IPO11 / RFU, DFFB / Fold change vs veh, DFFB / RFU, FOXP1 / Fold change vs veh, FOXP1 / RFU, CARD8 / Fold change vs veh, CARD8 / RFU, STRN3 / Fold change vs veh, STRN3 / RFU, ADK / Fold change vs veh, ADK / RFU, RASSF2 / Fold change vs veh, RASSF2 / RFU, WIPF1 / Fold change vs veh, WIPF1 / RFU, LARP1B / Fold change vs veh, LARP1B / RFU, RASA1 / Fold change vs veh, RASA1 / RFU, RB1 / Fold change vs veh, RB1 / RFU, PPFIA1 / Fold change vs veh, PPFIA1 / RFU, MAT2A / Fold change vs veh, MAT2A / RFU, CCT5 / Fold change vs veh, CCT5 / RFU, WDR92 / Fold change vs veh, WDR92 / RFU, CUX1 / Fold change vs veh, CUX1 / RFU, TTC7A / Fold change vs veh, TTC7A / RFU, TMEM135 / Fold change vs veh, TMEM135 / RFU, DEPTOR / Fold change vs veh, DEPTOR / RFU, CPM / Fold change vs veh, CPM / RFU, DNAJB6 / Fold change vs veh, DNAJB6 / RFU, CACNA2D3 / Fold change vs veh, CACNA2D3 / RFU, DTX4 / Fold change vs veh, DTX4 / RFU, TFCP2 / Fold change vs veh, TFCP2 / RFU, GMCL1 /// GMCL1P1 / Fold change vs veh, GMCL1 /// GMCL1P1 / RFU, AEBP2 / Fold change vs veh, AEBP2 / RFU, SNHG1 /// SNORD22 /// SNORD25 /// SNORD26 /// SNORD27 /// SNORD28 /// SNORD29 /// SNORD31 / Fold change vs veh, SNHG1 /// SNORD22 /// SNORD25 /// SNORD26 /// SNORD27 /// SNORD28 /// SNORD29 /// SNORD31 / Fold change (Aza/veh), C12orf56 (ProbeSet 11735607_a_at) / Fold change (ACY-1035/veh), C12orf56 (ProbeSet 11735607_a_at) / Fold change (Aza/veh), FGFR1OP (ProbeSet 11751329_s_at) / Fold change (ACY-1035/veh), FGFR1OP (ProbeSet 11751329_s_at) / Fold change (Aza/veh), VPS36 (ProbeSet 11739960_a_at) / Fold change (ACY-1035/veh), VPS36 (ProbeSet 11739960_a_at) / RFU SYPL1 (11715823_x_at) / Fold change /veh SYPL1 (11715823_x_at) / RFU IGFBP7 (11715501_s_at) / Fold change /veh IGFBP7 (11715501_s_at) / RFU REEP3 (11722064_at) / Fold change /veh REEP3 (11722064_at) / RFU IGLL1 (11728026_x_at) / Fold change /veh IGLL1 (11728026_x_at): dose or concentration left out as unconfirmed
Details: MV-4-11 cells, 48 hours

Structure (SMILES): Nc1ncn([C@@H]2O[C@H](CO)[C@@H](O)[C@H]2O)c(=O)n1 [azacitidine]
- RFU NKD1 (11759106_at): 23.64 RFU
